Patent publication US20240101599A1, “PEPTIDE, CELL GROWTH PROMOTER, PROTEIN PRODUCTION PROMOTER, CULTURE MEDIUM, CELL GROWTH METHOD USING PEPTIDE, AND PROTEIN PRODUCTION METHOD USING PEPTIDE” (Maruhachi Muramatsu, Inc., priority 2020, published 2024)
Peptide text beside a SMILES is read from it.

Experiments:
CHO-K1 [1] = assay: Cell growth test of each peptide on coating agent for 5 days; assay type: cell-based; parameters: Viability, 1 / Viability, 2 / Viability, 3 / Viability, Mean: unit not given here; settings: 2.0 mM Ala-Gly-Lys, 2.1 mM Gly-Glu-Lys, 2.5 mM Gly-Gly-Gly, poly-L-lysine coating; for Cells cell count, Mean / Viability, Mean: mean n=3, 2.2 mM Asp-Gly-Pro; for Cells cell count, 1 / Viability, 1: replicate 1, 2.2 mM Asp-Gly-Pro; for Cells cell count, 2 / Viability, 2: replicate 2, 2.2 mM Asp-Gly-Pro; for Cells cell count, 3 / Viability, 3: replicate 3, 2.2 mM Asp-Gly-Pro
Description: Peptides having the sequences of Asp-Gly-Pro (DGP), Ala-Gly-Lys (AGK), Gly-Glu-Lys (GEK), and Gly-Gly-Gly (GGG) were synthesized to prepare each peptide solution such that the concentration was a concentration at which the cell number increased the most within a range of 0 mM to 5 mM. In other words, Asp-Gly-Pro (DGP) was adjusted to 22 mM, Ala-Gly-Lys (AGK) was adjusted to 20 mM, Gly-Glu-Lys (GEK) was adjusted to 21 mM, and Gly-Gly-Gly (GGG) was adjusted to 25 mM, and an amount of 1/10 of the total culture medium volume was added to each well immediately before the cell culture test such that final concentrations were 2.2 mM, 2.0 mM, 2.1 mM, and 2.5 mM, respectively. Poly-L-lysine (Peptide Institute, Inc., Poly-L-Lysine Hydrochloride, code: 3075) was prepared to 0.1 mg/mL, and 200 μL was dispensed into each well of a 24-well plate, which was left to stand in an incubator at 37° C. for 2 hours. After removing the residual liquid with an aspirator, rinsing was performed with distilled water, irradiation was performed with a UV lamp in a clean bench without a lid, and drying was performed overnight to sterilize. A cell suspension prepared such that CHO-K1 (RIKEN BioResource Research Center, cell number: RCB2330) was at 4×10^4 cells/mL was seeded in each well of a 24-well plate at 500 μL/well and cultured in an incubator at 37° C. and 5% CO2 for 24 hours. As a culture medium, an MEMα culture medium (Gibco) containing 10% FBS was used.
After removing the culture medium from each well and washing with the MEMα culture medium (500 μL), 450 μL of a new MEMα culture medium was dispensed into each well, and each peptide solution (50 μL) was added (total 500 μL/well) to perform culture for 5 days. The cells were recovered to count the cell number. A similar culture test was performed using a system containing neither peptide nor FBS as a comparative sample.
The culture medium in each well was recovered in a 1.5 mL tube to be rinsed with 200 μL of MEMα, and the rinsed liquid was also recovered in the same 1.5 mL tube. Thereafter, 100 μL of trypsin was added and incubated for 3 minutes. After rinsing with 300 μL of MEMα containing 10% FBS, the rinsed liquid was also recovered in the same 1.5 mL tube. After rinsing again with 200 μL of MEMα containing 10% FBS, the rinsed liquid was also recovered in the same 1.5 mL tube.
A centrifugation operation was performed on the cells recovered in the 1.5 mL tube. The centrifugation conditions were 1,000 rpm, 10 minutes, and 4° C.
The supernatant was removed, and 300 μL of Cold PBS (phosphate buffered saline) was added to perform a centrifugation operation under the same conditions. The present operation was repeated twice.
Suspension was carried out with 100 μL of Binding Buffer, and 2 μL of propidium iodide (PI) was added and stirred in the tube to cause a reaction for 15 minutes at room temperature and with light shielding. Thereafter, the viable cell count and the cell viability were measured with a flow cytometer.
The above preparation, culture, and measurement were performed with n=3. Table 15 and FIG. 15 show the viable cell count in each peptide solution, and Table 16 and FIG. 16 show the cell viability in each peptide solution.

CHO-K1 [2] = assay: Relationship between number of days of cell growth of each peptide and cell number (absorbance); assay type: cell-based; settings: 1.1 mM GPP, 2.2 mM DGP, 2.1 mM GEK, 2.0 mM AGK, MEMα without FBS
Description: Peptides having the sequences of Gly-Pro-Pro (GPP), Asp-Gly-Pro (DGP), Gly-Glu-Lys (GEK), and Ala-Gly-Lys (AGK) were synthesized to prepare each peptide solution such that the concentration was a concentration at which the cell number increased the most within a range of 0 mM to 5 mM. In other words, Gly-Pro-Pro (GPP) was adjusted to 11 mM, Asp-Gly-Pro (DGP) was adjusted to 22 mM, Gly-Glu-Lys (GEK) was adjusted to 21 mM, and Ala-Gly-Lys (AGK) was adjusted to 20 mM, and an amount of 1/10 of the total culture medium volume was added to each well immediately before the cell culture test such that final concentrations were 1.1 mM, 2.2 mM, 2.1 mM, and 2.0 mM, respectively.
A cell suspension prepared such that CHO-K1 (RIKEN BioResource Research Center, cell number: RCB2330) was at 3×10^4 cells/mL was seeded in a 96-well plate at 100 μL/well and cultured in an incubator at 37° C. and 5% CO2 for 24 hours. As a culture medium, an MEMα culture medium (Gibco) containing 10% FBS was used.
After removing the culture medium from each well and washing with the MEMα culture medium (100 μL), 90 μL of a new MEMα culture medium was dispensed into each well, and each peptide solution (10 μL) was added (total 100 μL/well) to perform culture for 0 to 5 days. Every day, 10 μL/well of a viable cell count measurement reagent SF (Nacalai Tesque Inc.) was added, and a color reaction was carried out in an incubator at 37° C. and 5% CO2 for 2 hours to measure an absorbance at 450 nm with a plate reader. A reference wavelength was 630 nm. It was confirmed that the absorbance at 450 nm correlated with the cell number. A similar culture test was performed using a system containing neither peptide nor FBS as a comparative sample.
The above preparation, culture, and measurement were performed with n=3, and Table 12 and FIG. 12 show the absorbance and the standard deviation of each peptide solution for each day.

Row | Compound | Cells cell count, Mean (CHO-K1 [1]) | Viability, Mean (CHO-K1 [1]) | Cells cell count, 1 (CHO-K1 [1]) | Viability, 1 (CHO-K1 [1]) | Cells cell count, 2 (CHO-K1 [1]) | Viability, 2 (CHO-K1 [1]) | Cells cell count, 3 (CHO-K1 [1]) | Viability, 3 (CHO-K1 [1]) | OD450 (average value n = 3) (CHO-K1 [2]; Day 0) | OD450 (average value n = 3) (CHO-K1 [2]; Day 1) | OD450 (average value n = 3) (CHO-K1 [2]; Day 2) | OD450 (average value n = 3) (CHO-K1 [2]; Day 3) | OD450 (average value n = 3) (CHO-K1 [2]; Day 4) | OD450 (average value n = 3) (CHO-K1 [2]; Day 5)
1 | C[C@H](N)C(=O)NCC(=O)N[C@@H](CCCCN)C(=O)O [AGK, Ala-Gly-Lys] (H-Ala-Gly-Lys-OH; N-terminus and C-terminus assumed) | 2.6217 ×10^4 | 25.0 | 2.6860 ×10^4 | 26.4 | 3.0605 ×10^4 | 26.4 | 2.1185 ×10^4 | 22.1 | 0.1757 | 0.4577 | 0.7440 | 0.7997 | 1.0263 | 1.0620
2 | NCCCC[C@H](NC(=O)[C@H](CCC(=O)O)NC(=O)CN)C(=O)O [GEK, Gly-Glu-Lys] (H-Gly-Glu-Lys-OH; N-terminus and C-terminus assumed) | 16.5830 ×10^4 | 90.3 | 15.7190 ×10^4 | 90.2 | 16.9875 ×10^4 | 90.3 | 17.0425 ×10^4 | 90.5 | 0.1613 | 0.4280 | 0.6043 | 0.7300 | 0.9023 | 0.9107
3 | Asp-Gly-Pro [DGP] | 14.9353 ×10^4 | 89.6 | 15.8220 ×10^4 | 91.5 | 14.8590 ×10^4 | 91.2 | 14.1250 ×10^4 | 86.0 | 0.1607 | 0.4507 | 0.6840 | 0.7700 | 0.9313 | 0.9363
4 | Gly-Pro-Pro [GPP] | – | – | – | – | – | – | – | – | 0.2023 | 0.5267 | 0.7083 | 0.8350 | 1.0227 | 0.9003
